Patent US6977082B2, “High efficacy antibacterial compositions having enhanced esthetic and skin care properties” (The Dial Corporation, priority 2001, dated 2005)

Assay: Repeat Application Soap Chamber (irritation) Test
Details: occlusive patches on volar forearm, six days, dilute solutions
Method: Twelve male and female subjects between the ages of 18 and 65, who were in good health, were enrolled in the test. Dilute solutions of all test compositions were made each day of patching. Patches were totally occlusive chambers, 12 mm in diameter, applied to the volar forearm for a total of six days. Expert visual gradings, using a four-point scale for erythema, scaling, and fissuring were used as the objective measure of observation for this study. Grading was performed at baseline (i.e., when panelists were enrolled), 30 minutes after patch removal on days one to six, and at 24 hours on days one to six. A maximum for each tested characteristic was established as a “3” score.

## CCCCCCCCCCCCOS(=O)(=O)[O-].[Na+] [SLS, sodium lauryl sulfate]
  irritation potential, ranking from highest to lowest: SLS>HCPHW-E>HCPHW-H>HCPHW-G>HCPHW-F>Composition A>Negative Control
